Publication PMC7096398, “Oxytocin Receptors Regulate Social Preference in Zebrafish” (Scientific Reports, 2020)
Values joined by “and” are separate entries in the source; they are usually repeats but may differ in a detail not shown here. Equal entries are not always repeated. Where two headings read alike, the source gives them in different places. Positions of bridges follow the written chain, without caps; N, C: chain ends. Residues, ends and D or L forms follow the SMILES beside them.

Legend:
Avpr1aa = molecular target: T1, Avpr1aa (Danio rerio, UniProt A0A8M1P1H3); test: Inositol phosphate accumulation assay, agonist potency at Avpr1aa; format: cell-based, zebrafish
T1 sequence (A0A8M1P1H3 1-379): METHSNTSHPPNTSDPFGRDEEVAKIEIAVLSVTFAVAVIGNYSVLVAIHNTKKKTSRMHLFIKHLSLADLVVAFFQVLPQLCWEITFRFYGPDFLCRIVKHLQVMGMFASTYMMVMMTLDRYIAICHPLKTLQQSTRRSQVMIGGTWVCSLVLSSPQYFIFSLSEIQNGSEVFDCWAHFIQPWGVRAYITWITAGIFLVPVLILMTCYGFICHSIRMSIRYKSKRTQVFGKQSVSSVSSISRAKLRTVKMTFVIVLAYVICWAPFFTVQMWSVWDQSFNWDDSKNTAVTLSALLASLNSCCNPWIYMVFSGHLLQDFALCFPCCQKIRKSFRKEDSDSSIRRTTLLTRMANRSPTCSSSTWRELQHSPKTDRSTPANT
Description: (§1) The receptor constructs were ordered from GeneScript and subcloned into a pcDNA3.1/CT-GFP-TOPO vector. The coding sequences of the GenBank entries NM_001199370.1 (oxtr), NM_001199369.1 (oxtrl), NM_001301114.1 (avpr1aa), and NM_001297676.1 (avpr1ab) were used for synthesis. The stop codons were removed, and an additional […] was added to facilitate hybrid protein expression with GFP in frame from the vector. The GCCACC Kozak sequence was inserted before the start codons. After transformation of the plasmid constructs into TOP10 competent cells (Thermo Fisher Scientific), the Maxiprep (Thermo Fisher Scientific) method was used to amplify the plasmids for transfection.
(§2) The Inositol phosphate accumulation assay was performed according to previous descriptions to measure the potency of different ligands for zebrafish different oxytocin related receptors. Each receptor construct was transfected into HEK293 cells using Lipofectamine 2000 (Thermo Fisher Scientific). Myo2-^3H-inositol (PerkinElmer) at 3 μCi/mL was added the day after transfection. On day three, cells were re-suspended in assay buffer (10 mM LiCl, 20 mM HEPES, 137 mM NaCl, 5 mM KCl, 0.44 mM KH2PO4, 4.2 mM NaHCO3, 1.2 mM MgCl2, 1 mM CaCl2, and 10 mM glucose), after incubation in a PBS/EDTA mixture (0.2 g/L). After 10 minutes of pre-incubation at 37 °C, the cells were stimulated with serial dilution of peptides for 25 minutes at 37 °C. […] Cells were lysed for 60 minutes at 4 °C with an equal volume of 0.8 M perchloric acid, and then neutralised with KOH/KHCO3 solution. Ion exchange chromatography on AG 1-X8 resin (Bio-Rad) was used to collect the generated ^3H-inositol phosphates. The resin was washed with buffer containing 5 mM Na2B4O7 and 60 mM NH4-formate and eluted with buffer containing 1 M NH4-formate and 0.1 M formic acid. Samples were mixed with OptiPhase HiSafe (PerkinElmer Waltham, MA, USA) and ^3H radioactivity was measured with a Tri-Carb 2910TR liquid scintillation counter (PerkinElmer Waltham, MA, USA). The assays were performed in duplicate for each concentration and repeated at least 3 times.

Oxtr = molecular target: T2, Oxtr (Danio rerio, UniProt E4W699); test: Inositol phosphate accumulation assay, agonist potency at Oxtr; format: cell-based, zebrafish
T2 construct: host or cells: HEK293
T2 sequence (E4W699 1-388): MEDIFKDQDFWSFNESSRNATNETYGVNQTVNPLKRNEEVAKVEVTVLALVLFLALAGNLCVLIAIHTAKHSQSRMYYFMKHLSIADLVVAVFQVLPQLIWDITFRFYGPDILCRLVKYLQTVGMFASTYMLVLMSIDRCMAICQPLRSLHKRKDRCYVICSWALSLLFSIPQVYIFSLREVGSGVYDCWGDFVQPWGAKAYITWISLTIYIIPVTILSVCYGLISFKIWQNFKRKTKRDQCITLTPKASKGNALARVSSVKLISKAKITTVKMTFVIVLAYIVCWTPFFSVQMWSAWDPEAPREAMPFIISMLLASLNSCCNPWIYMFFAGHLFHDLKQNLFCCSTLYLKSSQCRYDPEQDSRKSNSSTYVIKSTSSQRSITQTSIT
Description: as §1, §2

Avpr1ab = molecular target: T3, Avpr1ab (Danio rerio, UniProt A0A8M1P6E3); test: Inositol phosphate accumulation assay, agonist potency at Avpr1ab; format: cell-based, zebrafish
T3 sequence (A0A8M1P6E3 1-410): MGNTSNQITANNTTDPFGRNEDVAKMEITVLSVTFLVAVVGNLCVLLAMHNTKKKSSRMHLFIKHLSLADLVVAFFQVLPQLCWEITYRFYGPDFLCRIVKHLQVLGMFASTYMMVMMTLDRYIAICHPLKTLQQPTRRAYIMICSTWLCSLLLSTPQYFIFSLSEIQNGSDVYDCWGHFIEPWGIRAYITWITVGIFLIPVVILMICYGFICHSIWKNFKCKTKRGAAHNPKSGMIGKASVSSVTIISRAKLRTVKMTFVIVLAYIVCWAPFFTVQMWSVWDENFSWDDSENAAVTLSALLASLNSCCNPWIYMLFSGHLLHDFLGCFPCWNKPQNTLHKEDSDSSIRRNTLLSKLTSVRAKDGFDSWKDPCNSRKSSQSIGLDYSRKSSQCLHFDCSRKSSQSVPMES
Description: as §1, §2

Oxtrl = molecular target: T4, Oxtrl (Danio rerio, UniProt E4W698); test: Inositol phosphate accumulation assay, agonist potency at Oxtrl; format: cell-based, zebrafish
T4 construct: host or cells: HEK293
T4 sequence (E4W698 1-382): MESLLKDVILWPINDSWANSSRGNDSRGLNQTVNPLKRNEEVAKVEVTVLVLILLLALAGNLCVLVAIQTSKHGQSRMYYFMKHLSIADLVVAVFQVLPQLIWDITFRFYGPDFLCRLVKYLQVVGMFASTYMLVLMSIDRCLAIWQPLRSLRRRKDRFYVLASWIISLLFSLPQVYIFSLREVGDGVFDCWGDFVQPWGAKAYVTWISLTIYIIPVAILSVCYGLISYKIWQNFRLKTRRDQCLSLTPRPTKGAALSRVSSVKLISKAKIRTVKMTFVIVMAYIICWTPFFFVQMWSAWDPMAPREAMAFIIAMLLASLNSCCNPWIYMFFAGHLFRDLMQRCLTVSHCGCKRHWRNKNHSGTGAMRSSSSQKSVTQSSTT
Description: as §1, §2

zebrafish = test system: zebrafish; parameters: method as in 4 sources, ref 42 = [42]; PMID 21956239; doi:10.1007/s00213-011-2482-2; 42. Braida D Neurohypophyseal hormones manipulation modulate social and anxiety-related behavior in zebrafish Psychopharmacology (Berl) 2012 220 319 330 10.1007/s00213-011-2482-2 21956239 ||| ref 44 = [44]; PMID 27247142; doi:10.1016/j.bbr.2016.05.059; 44. Zimmermann FF Gaspary KV Siebel AM Bonan CD Oxytocin reversed MK-801-induced social interaction and aggression deficits in zebrafish Behav Brain Res 2016 311 368 374 10.1016/j.bbr.2016.05.059 2724 ||| ref 51 = [51]; doi:10.1163/1568539x-00003261; 51. Lindeyer CM Langen EMA Swaney WT Reader SM Nonapeptide influences on social behaviour: effects of vasotocin and isotocin on shoaling and interaction in zebrafish Behaviour 2015 152 897 915 10.1163 ||| ref 27 = [27]; PMID 26347614; doi:10.3389/fncir.2015.00039; 27. Dreosti E Lopes G Kampff AR Wilson SW Development of social behavior in young zebrafish Front Neural Circuits 2015 9 39 10.3389/fncir.2015.00039 26347614 PMC4539524; settings: cited from earlier work
Excerpt: Thus far, dopamine[56] and serotonin[57] in the mesolimbic system and excitation-inhibition balance[58] seem to play a prominent role in social investigation in rodents. Similarly, levels of dopamine and serotonin are modulated in socially interacting fish[59]–[61] and social preference behaviour decreases after treatment with a dopamine D1 receptor antagonist. […] In rodents, release of ... || (+ 1 further places)

[1] = HEK293 cells transfected with zebrafish Avpr1aa, 3H-inositol phosphate accumulation, 10 min pre-incubation, 25 min stimulation, 37 °C, duplicates, table: mean ± SEM, n = 3 (zOT n = 4), read-out: Potency (EC50) at Avpr1aa
[2] = HEK293 cells transfected with zebrafish Avpr1ab, 3H-inositol phosphate accumulation, 10 min pre-incubation, 25 min stimulation, 37 °C, duplicates, table: mean ± SEM, n = 3, read-out: Potency (EC50) at Avpr1ab
[3] = read-out: Potency (EC50) at Oxtrl

Molecule | EC50 (Avpr1aa; [1]) | EC50 (Avpr1ab; [2]) | EC50 (Oxtrl; [3]) | EC50 (Oxtr) | further results
CC[C@H](C)[C@@H]1NC(=O)[C@H](Cc2ccc(O)cc2)NC(=O)[C@@H](N)CSSC[C@@H](C(=O)N2CCC[C@H]2C(=O)N[C@H](C(=O)NCC(N)=O)[C@@H](C)CC)NC(=O)[C@H](CC(N)=O)NC(=O)[C@H](CO)NC1=O [zOT] (H-CYISNCPIG-NH2; disulfide 1-6) | 317 ± 79 nM | 3.52 ± 0.94 nM | 3.14 ± 1.1 nM | – | EC50 (Oxtr; HEK293 cells transfected with zebrafish Oxtr, 3H-inositol phosphate accumulation, 10 min pre-incubation, 25 min stimulation, 37 °C, duplicates, table: mean ± SEM, n = 3, read-out: Potency (EC50) at Oxtr): 2.99 ± 0.93 nM
CC[C@H](C)[C@@H]1NC(=O)[C@H](Cc2ccc(O)cc2)NC(=O)[C@@H](N)CSSC[C@@H](C(=O)N2CCC[C@H]2C(=O)N[C@@H](CCCNC(=N)N)C(=O)NCC(N)=O)NC(=O)[C@H](CC(N)=O)NC(=O)[C@H](CCC(N)=O)NC1=O [zVP] (H-CYIQNCPRG-NH2; disulfide 1-6) | – | – | – | 11 ± 3 nM | EC50 (Avpr1aa): > 317 nM and 727 nM; EC50 (Avpr1ab): 2.79 ± 1.4 nM; EC50 (Oxtrl): 27 ± 9.5 nM
CC[C@H](C)[C@@H]1NC(=O)[C@H](Cc2ccc(O)cc2)NC(=O)[C@@H](N)CSSC[C@@H](C(=O)N2CCC[C@H]2C(=O)N[C@@H](CC(C)C)C(=O)NCC(N)=O)NC(=O)[C@H](CC(N)=O)NC(=O)[C@H](CCC(N)=O)NC1=O [OT] | 20 to 50 nM and 21.5 nM | 20 to 50 nM and 42.1 nM | 20 to 50 nM and 34.8 nM | 20 to 50 nM and 47.9 nM | –
carbetocin | – | – | – | – | Social deficits following MK-801 exposure (zebrafish; zebrafish exposed to glutamate antagonist MK-801): rescued social deficits
C[C@]12N[C@H](Cc3ccccc31)c1ccccc12 [MK-801] | – | – | – | – | Social preference deficits (zebrafish; zebrafish): deficits in social preference induced
CCO [ethanol] | – | – | – | – | Social preference, developing zebrafish (zebrafish; high concentrations): inhibit social preference
